# In article PMC8961527, “Protein Binding of Benzofuran Derivatives: A CD Spectroscopic and In Silico Comparative Study of the Effects of 4-Nitrophenyl Functionalized Benzofurans and Benzodifurans on BSA Protein Structure” (Biomolecules, 2022):
# What was measured:
# [1] = target: T1, bovine serum albumin (BSA) (Bos taurus, UniProt P02769); test: intrinsic tryptophan fluorescence quenching titration (apparent kD); supported by CD spectra and CD melting (ΔTm −[…] °C); assay type: binding
# T1 construct: gene ALB
# [2] = target: T1, bovine serum albumin (BSA); test: intrinsic tryptophan fluorescence quenching titration (apparent kD); supported by CD spectra and CD melting (ΔTm +[…] °C); assay type: binding
# T1 sequence (P02769 25-607): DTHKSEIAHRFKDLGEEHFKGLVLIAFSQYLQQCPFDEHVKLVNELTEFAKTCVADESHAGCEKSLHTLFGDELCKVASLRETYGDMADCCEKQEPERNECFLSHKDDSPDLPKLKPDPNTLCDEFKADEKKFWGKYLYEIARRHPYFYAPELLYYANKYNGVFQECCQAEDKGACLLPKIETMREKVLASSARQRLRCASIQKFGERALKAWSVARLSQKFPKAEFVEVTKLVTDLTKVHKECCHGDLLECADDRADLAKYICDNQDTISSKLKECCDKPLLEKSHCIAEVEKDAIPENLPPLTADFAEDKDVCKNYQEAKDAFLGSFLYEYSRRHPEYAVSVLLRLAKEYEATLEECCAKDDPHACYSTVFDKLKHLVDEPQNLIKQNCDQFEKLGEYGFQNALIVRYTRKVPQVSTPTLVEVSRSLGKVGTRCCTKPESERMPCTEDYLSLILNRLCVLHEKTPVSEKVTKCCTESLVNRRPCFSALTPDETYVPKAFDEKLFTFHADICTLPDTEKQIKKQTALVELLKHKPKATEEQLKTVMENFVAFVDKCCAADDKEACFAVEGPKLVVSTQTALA
Kd [1] [nM],Kd [2] [nM],Compound
142 ± 64.6,,CCCCOC(=O)c1c(N)oc2c(-c3ccc([N+](=O)[O-])cc3)c3c(C(=O)OCCCC)c(N)oc3cc12 [BDF1]
,28.4 ± 10.1,CCCCOC(=O)c1c(N)oc2ccc(O)c(-c3ccc([N+](=O)[O-])cc3)c12 [BF1]
